Assay results from patent publication US4010264A, “7-[3-Substituted isoxazol-5-yl]-acetamido-cephalosporanic acids and their anti-bacterial use” (Koninklijke Nederlandsche Gist-en Spiritusfabriek N.V., priority 1970, dated 1977).
Values after ≈ are worked out from the molar mass of the structure shown. Structures can show the parent of a compound that is named as a salt. Where two headings read alike, the source gives them in different places.

Tests used:
[1] = tested on: Bacillus subtilis ATCC 6633; test: MIC, agar serial dilution test; assay type: cell-based
[2] = tested on: Staphylococcus aureus A55; test: MIC, agar serial dilution test; assay type: cell-based
[3] = tested on: Staphylococcus aureus A321; test: MIC, agar serial dilution test; assay type: cell-based
[4] = tested on: Streptococcus haemolyticus A266; test: MIC, agar serial dilution test; assay type: cell-based
[5] = tested on: Streptococcus faecalis L 80; test: MIC, agar serial dilution test; assay type: cell-based; details: Enterococcus faecalis
[6] = tested on: Diplococcus pneumoniae L 54; test: MIC, agar serial dilution test; assay type: cell-based; details: Streptococcus pneumoniae
Brucella melitensis A488 = test: microbe, parasite or virus in culture; assay type: cell-based; details: A488, 24 h
[7] = tested on: Pasteurella multocida A723; test: MIC, agar serial dilution test; assay type: cell-based
[8] = tested on: Klebsiella pneumoniae A809; test: MIC, agar serial dilution test; assay type: cell-based
[9] = tested on: Staphylococcus aureus A355 (penicillinase-producing); test: MIC, agar serial dilution test; details: 24 h
[10] = tested on: Staphylococcus aureus L160a (penicillinase-producing); test: MIC, agar serial dilution test; details: 24 h
[11] = tested on: Staphylococcus aureus A 321; test: in vivo infection test in mice; details: A321, in Mus musculus
Proteus mirabilis O.T. = test: in vivo infection test in mice; details: in Mus musculus
[12] = tested on: Pseudomonas aeruginosa A 1058; test: in vivo infection test in mice; details: A1058, in Mus musculus
[13] = tested on: Staphylococcus aureus A 2001; test: in vivo infection test in mice; details: A2001, in Mus musculus
[14] = tested on: Staphylococcus aureus A 2000; test: in vivo infection test in mice; details: A2000, in Mus musculus
[15] = tested on: Salmonella typhi murium R 172; test: in vivo infection test in mice; details: Salmonella enterica, in Mus musculus
[16] = ATCC6633, Bacillus subtilis ATCC 6633, 24 hours at 37° C, read-out: MIC
[17] = Staphylococcus aureus A55, 24 hours at 37° C, read-out: MIC
[18] = Staphylococcus aureus A321, 24 hours at 37° C, read-out: MIC
[19] = Streptococcus haemolyticus A266, 24 hours at 37° C, read-out: MIC
[20] = L80, Streptococcus faecalis L 80, 24 hours at 37° C, read-out: MIC
[21] = L54, Diplococcus pneumoniae L 54, 24 hours at 37° C, read-out: MIC
[22] = Pasteurella multocida A723, 24 hours at 37° C, read-out: MIC
[23] = Klebsiella pneumoniae A809, 24 hours at 37° C, read-out: MIC

Row | Structure (SMILES) | MIC [1, 16] [µg/mL] | MIC [2, 17] [µg/mL] | MIC [3, 18] [µg/mL] | MIC [4, 19] [µg/mL] | MIC [5, 20] [µg/mL] | MIC [6, 21] [µg/mL] | MIC (Brucella melitensis A488) [µg/mL] | MIC [7, 22] [µg/mL] | MIC [8, 23] [µg/mL] | MIC [9] [µg/mL] | MIC [10] [µg/mL] | ED50 ([11]; ip) [mg/kg] | ED50 ([11]; po) [mg/kg] | ED50 (Proteus mirabilis O.T.; ip) [mg/kg] | ED50 ([11]; sc) [mg/kg] | ED50 ([13]; ip) [mg/kg] | ED50 ([13]; po) [mg/kg] | ED50 ([13]; sc) [mg/kg] | other results
1 | CC1(C)S[C@@H]2C(NC(=O)Cc3onc(-c4c(Cl)cccc4Cl)c3C(=O)O)C(=O)N2[C@H]1C(=O)O (some centres unmarked) [Example V, 6-{[3-(2,6-dichlorophenyl)-4-carboxyisoxazol-5-yl]acetamido}penicillanic acid] | 0.5 (≈ 0.972 µM) | 1 (≈ 1.94 µM) | 1 (≈ 1.94 µM) | 0.5 (≈ 0.972 µM) | 25 (≈ 48.6 µM) | 6 (≈ 11.7 µM) | 25 (≈ 48.6 µM) | 1.5 (≈ 2.92 µM) | > 100 | 12.5 (≈ 24.3 µM) | 3 (≈ 5.83 µM) | < 100 | > 215 | > 300 |  |  |  |  | ED50 (Proteus mirabilis O.T.; po): > 300 mg/kg
2 | Cc1cc(C)c(-c2cc(C(C)C(=O)NC3C(=O)N4C3SC(C)(C)C4C(=O)O)on2)c(C)c1 (stereo not drawn) [Example XI, Cyclohexylamine salt of 6{α-methyl-[3-(2,4,6-trimethyl)phenylisoxazol-5-yl]acetamido}penicillanic acid] | 0.06 | 0.12 | 0.06 | 0.007 | 1.5 | 0.12 | 3 | 50 | 100 | 12.5 | 12.5 | > 21.5 | > 100 | > 300 |  |  |  |  | ED50 ([12]; po): > 300 mg/kg; ED50 (Proteus mirabilis O.T.; po): > 300 mg/kg
3 | CCC(Oc1ccccc1)C(=O)N[C@@H]1C(=O)N2[C@@H]1SC(C)(C)[C@@H]2C(=O)O (some centres unmarked) [Propicillin, reference compound] |  |  |  |  |  |  |  |  |  |  |  |  | 10.8 |  | 2.33 | 133 | > 215 | > 215 | ED50 ([14]; ip): 88 mg/kg; ED50 ([14]; po): > 215 mg/kg; ED50 ([14]; sc): > 215 mg/kg
4 | CC1(C)SC2C(NC(=O)Cc3cc(-c4c(Cl)cccc4Cl)no3)C(=O)N2C1C(=O)O (centres unmarked) [Example I, Sodium salt of 6-{[3-(2,6-dichlorophenyl)isoxazol-5-yl]acetamido}-penicillanic acid] | 0.007 | 0.01 | 0.015 | 0.007 | 50 | 0.25 | 0.5 | 2 | 100 | 3 | 1 | 10.8 | 126 |  | 36.9 | > 215 | > 215 | > 215 | ED50 ([14]; ip): 133 mg/kg; ED50 ([14]; po): > 215 mg/kg; ED50 ([14]; sc): > 215 mg/kg; ED50 ([15]; ip): > 215 mg/kg; ED50 ([12]; ip): > 215 mg/kg
5 | Cc1cc(C)c(-c2cc(C(Cl)C(=O)NC3C(=O)N4C3SC(C)(C)C4C(=O)O)on2)c(C)c1 (stereo not drawn) [Example IX, Cyclohexylamine salt of 6-{α-chloro-[3-(2,4,6-trimethyl)phenyl-isoxazol-5-yl]acetamido}penicillanic acid] | 0.12 | 0.25 | 0.25 | 0.06 | 1.5 | 0.12 | 25 | 25 | > 100 | 25 | 25 | > 21.5 | > 100 |  |  |  |  |  | 
6 | CC1=C(C(=O)O)N2C(=O)C(NC(=O)Cc3cc(-c4c(Cl)cccc4Cl)no3)C2SC1 (centres unmarked) [Example IV, Sodium salt of 7{[3-(2,6-dichlorophenyl)isoxazol-5-yl]acetamido}desacetoxycephalosporanicacid] | 1 | 0.75 | 0.5 | 0.5 |  | 0.75 | 12.5 | 6 | > 100 | 3 | 1.5 | 23.3 | 50.1 | > 215 | 31.6 | 23.3 | ~200 | > 215 | MIC ([5]; L80, 24 h): 12.5 µg/mL; ED50 ([14]; ip): 19.6 mg/kg; ED50 ([14]; po): > 215 mg/kg; ED50 ([14]; sc): > 215 mg/kg; ED50 ([15]; ip): > 215 mg/kg; ED50 ([12]; ip): > 215 mg/kg
7 | CC1(C)SC2C(NC(=O)C(N)c3cc(-c4c(Cl)cccc4Cl)no3)C(=O)N2C1C(=O)O (stereo not drawn) [Example XVIII, 6-{α-amino-[3-(2,6-dichloro)phenyl-isoxazol-5-yl]acetamido} penicillanic acid] | 0.06 (≈ 0.124 µM) | 0.25 (≈ 0.515 µM) | 0.12 (≈ 0.247 µM) | < 0.015 | 1 (≈ 2.06 µM) | 0.12 (≈ 0.247 µM) | 0.5 (≈ 1.03 µM) | 6 (≈ 12.4 µM) | > 100 | 12.5 (≈ 25.8 µM) | 12.5 (≈ 25.8 µM) |  |  |  |  |  |  |  | 
8 | CC(=O)OCC1=C(C(=O)O)N2C(=O)C(NC(=O)Cc3cc(-c4c(C)cc(C)cc4C)no3)C2SC1 (centres unmarked) [VII, Sodium salt of 7-{[3-(2,4,6-trimethyl)phenylisoxazol-5-yl]acetamido}cephalosporanic acid] | 0.015 | 0.06 | 0.06 | 0.03 | 1 | 0.03 | 12.5 | 50 | 50 | 0.25 | 0.12 | 3.8 | 70 | > 215 | 18.5 | 17.1 | > 215 | 140 | ED50 ([15]; ip): > 215 mg/kg; ED50 ([15]; po): > 215 mg/kg; ED50 ([12]; ip): > 215 mg/kg; ED50 ([12]; po): > 215 mg/kg; ED50 (Proteus mirabilis O.T.; po): ~215 mg/kg
9 | CC1=C(C(=O)O)N2C(=O)[C@@H](NC(=O)[C@H](N)c3ccccc3)[C@H]2SC1 [Cephalexine, Cephalexin, reference compound] |  |  |  |  |  |  | 6 (≈ 17.3 µM) |  |  | 12.5 (≈ 36 µM) | 12.5 (≈ 36 µM) |  |  |  |  |  |  |  | MIC ([1]; Bacillus subtilis, ATCC6633, 24 h): 0.5 µg/mL (≈ 1.44 µM); MIC ([2]; Staphylococcus aureus, A55, 24 h): 3 µg/mL (≈ 8.64 µM); MIC ([3]; Staphylococcus aureus, A321, 24 h): 1.5 µg/mL (≈ 4.32 µM); MIC ([4]; Streptococcus, A266, 24 h): 0.25 µg/mL (≈ 0.72 µM); MIC ([5]; L80, 24 h): 100 µg/mL (≈ 288 µM); MIC ([6]; L54, 24 h): 3 µg/mL (≈ 8.64 µM); MIC ([7]; Pasteurella multocida, A723, 24 h): 3 µg/mL (≈ 8.64 µM); MIC ([8]; Klebsiella pneumoniae, A809, 24 h): 3 µg/mL (≈ 8.64 µM)
10 | Cc1cc(CC(=O)NC2C(=O)N3[C@@H]2SC(C)(C)[C@@H]3C(=O)O)on1 (some centres unmarked) [Example XXI, 6-{[3-methyl-isoxazol-5-yl]acetamido}penicillanic acid] | 0.06 (≈ 0.177 µM) | 0.5 (≈ 1.47 µM) | 0.25 (≈ 0.737 µM) | 0.03 (≈ 0.0884 µM) | 3 (≈ 8.84 µM) | 1.5 (≈ 4.42 µM) | 3 (≈ 8.84 µM) | 1.5 (≈ 4.42 µM) | > 100 | 6 (≈ 17.7 µM) | 3 (≈ 8.84 µM) |  |  |  |  |  |  |  | 
11 | Cc1c(-c2c(Cl)cccc2Cl)noc1CC(=O)NC1C(=O)N2C1SC(C)(C)C2C(=O)O (centres unmarked) [Example X, Sodium salt of 6-{[3-(2,6-dichloro)phenyl-4-methyl-isoxazol-5-yl]acetamido}penicillanic acid] | 0.005 | 0.03 | 0.03 | 0.006 | 0.25 | 0.02 | 3 | 3 | > 100 | 3 | 0.5 |  |  |  |  |  |  |  | 
